Values quoted from earlier work in patent publication US20180015164A1, “A Composition Containing Protective Agent for Singlet Oxygen and A Preparation Method therefor” (Nanjing University, priority 2016, published 2018).

Conditions: in the named solution (solvent / protective agent)

Row | Structure (SMILES) | lifetime of singlet oxygen [μs]
1 | S=C=S [carbon disulfide] | 200±60
2 | CCO [ethyl alcohol] | 12
3 | CO [methyl alcohol] | 7
4 | FC(F)(F)C(F)(F)C(F)(F)C(F)(F)C(F)(F)C(F)(F)F [perfluorohexane] | 600±200
5 | [2H]O[2H] [deuteroxide] | 20
6 | O [water] | 2
7 | ClC(Cl)Cl [chloroform] | 60±15
8 | FC(Cl)(Cl)Cl [Freon 11] | 1000±200
9 | CCCCCC [hexane] | 17
